Legend:
[1] = system: patients with gout and a history of major cardiovascular diseases; experiment: eGFR over time by average serum uric acid concentration, analysis of clinical trial data; format: in vivo, human; settings: febuxostat group
Procedure: (§1) In order to evaluate non-inferiority of febuxostat to allopurinol related to cardiovascular risk, a clinical trial was designed and proceeded.
(§2) A multicenter, randomized, double-blind non-inferiority trial was performed. The details of the clinical trial design have been published previously. An independent data and safety monitoring committee with access to unblinded data monitored the clinical trial. The statistical analysis for the data and the safety monitoring committee was performed by an independent statistical group (WebbWrites).
(§3) The patients were regarded as having a history of major cardiovascular diseases, if they had myocardial infarction, hospitalization for unstable angina, stroke, hospitalization for transient ischemic attack, peripheral vascular disease, or diabetes mellitus symptoms. All participants provided a prior informed consent form.
(§4) The patients were randomly assigned so that they received febuxostat or allopurinol administered once a day in a double-blind manner. The randomization was stratified according to the estimated creatinine clearance at baseline (patient group having an estimated creatinine clearance ≥60 ml per minute vs patient group having an estimated creatinine clearance ≥30 and <60 ml per minute).
(§5) The dose of allopurinol was modified according to a kidney function. The patients with the estimated creatinine clearance 60 ml or more per minute i) initially received allopurinol at a dose of 300 mg once a day, and the dose was increased in 100 mg increments monthly until the patient had the serum uric acid concentration of less than 6.0 mg per deciliter or the dosage of allopurinol was 600 mg once a day. The patient having the estimated creatinine clearance of 30 ml or more and less than 60 ml per minute initially received 200 mg of allopurinol, and then the dose was increased in 100 mg increments until the patient either had the serum uric acid concentration of less than 6.0 mg per deciliter or was receiving the allopurinol dose of 400 mg once daily.
(§6) The dose of febuxostat was not modified according to the kidney function. The patients who were randomly assigned to receive febuxostat initially received 40 mg once a daily, and continued to receive the same dosage if the serum uric acid concentration was less than 6.0 mg per deciliter after 2 weeks of the treatment. If the serum uric acid concentration was higher than 6.0 mg per deciliter at 2nd week visit, the dose of febuxostat was increased to 80 mg once daily for the remainder of the trial.
(§7) During the period, the administration of a double-blind and double-dummy trial medications was guided by an interactive voice-response system which was a procedure to prevent unblinding for the patients whose dose was not adjusted. After completing dose adjustment, the urate level was concealed from the investigators, and the treatment was managed throughout the trial using the interactive voice-response system.
(§8) Outpatient visits were conducted according to the following schedule: during screening and randomization, and at 2, 4, 6, 8, 10, 12, and 24 weeks after the randomization, and every 6 months during the subsequent years of the trial. The patients with reduced kidney function or, the patients aged 65 years or older at randomization were visited at 9 and 15 months for monitoring the serum chemical profile. If the patient agreed to be monitored, but would not return for study visit, telephone contact was made, but such method was not preferred or recommended.
In order to confirm the effect of allopurinol and febuxostat on the kidney disease, the data obtained in the clinical trial described above was analyzed.

[2] = system: patients with gout and a history of major cardiovascular diseases; experiment: clinical trial febuxostat vs allopurinol: serum uric acid, gout flare, treatment discontinuation; format: in vivo, human
Procedure: as §1, §2, §3, §4, §5, §6, §7, §8

[3] = post-marketing study, Arthritis Research & Therapy volume 21, Article number: 229 (2019); cited from earlier work

Cc1nc(-c2ccc(OCC(C)C)c(C#N)c2)sc1C(=O)O [febuxostat]
eGFR Mean (95% CI) ([1]; DBP <80, Average UA <6, Month 18): 63.11 (61.75-64.47) ml/min/1.73 m^2
eGFR Mean (95% CI) ([1]; DBP <80, Average UA <6, Month 24): 63.79 (62.31-65.27) ml/min/1.73 m^2
eGFR Mean (95% CI) ([1]; DBP <80, Average UA <6, Month 30): 63.51 (61.89-65.13) ml/min/1.73 m^2
eGFR Mean (95% CI) ([1]; DBP <80, Average UA <6, Month 36): 64.28 (62.56-66.00) ml/min/1.73 m^2
eGFR Mean (95% CI) ([1]; DBP <80, Average UA <6, Month 42): 64.43 (62.50-66.35) ml/min/1.73 m^2
eGFR Mean (95% CI) ([1]; DBP <80, Average UA <6, Month 48): 65.60 (63.48-67.72) ml/min/1.73 m^2
eGFR Mean (95% CI) ([1]; DBP <80, Average UA <6, Month 54): 65.70 (63.39-68.00) ml/min/1.73 m^2
eGFR Mean (95% CI) ([1]; DBP <80, Average UA <6, Month 60): 66.92 (64.25-69.59) ml/min/1.73 m^2
eGFR Mean (95% CI) ([1]; DBP <80, Average UA <6, Week 2): 62.06 (60.81-63.31) ml/min/1.73 m^2
eGFR Mean (95% CI) ([1]; DBP <80, Average UA ≥6, Baseline): 62.08 (59.70-64.45) ml/min/1.73 m^2
eGFR Mean (95% CI) ([1]; DBP <80, Average UA ≥6, Month 3): 61.44 (58.99-63.89) ml/min/1.73 m^2
eGFR Mean (95% CI) ([1]; DBP <80, Average UA ≥6, Month 6): 61.49 (59.02-63.95) ml/min/1.73 m^2
eGFR Mean (95% CI) ([1]; DBP <80, Average UA ≥6, Month 12): 60.74 (58.06-63.41) ml/min/1.73 m^2
eGFR Mean (95% CI) ([1]; DBP <80, Average UA ≥6, Month 18): 60.18 (57.20-63.15) ml/min/1.73 m^2
eGFR Mean (95% CI) ([1]; DBP <80, Average UA ≥6, Month 24): 60.32 (57.11-63.53) ml/min/1.73 m^2
eGFR Mean (95% CI) ([1]; DBP <80, Average UA ≥6, Month 30): 59.54 (55.89-63.19) ml/min/1.73 m^2
eGFR Mean (95% CI) ([1]; DBP <80, Average UA ≥6, Month 36): 60.26 (56.16-64.37) ml/min/1.73 m^2
eGFR Mean (95% CI) ([1]; DBP <80, Average UA ≥6, Month 42): 59.55 (55.09-64.02) ml/min/1.73 m^2
eGFR Mean (95% CI) ([1]; DBP <80, Average UA ≥6, Month 48): 59.84 (55.23-64.46) ml/min/1.73 m^2
eGFR Mean (95% CI) ([1]; DBP <80, Average UA ≥6, Month 54): 60.35 (55.08-65.62) ml/min/1.73 m^2
eGFR Mean (95% CI) ([1]; DBP <80, Average UA ≥6, Month 60): 60.01 (53.34-66.68) ml/min/1.73 m^2
eGFR Mean (95% CI) ([1]; DBP <80, Average UA ≥6, Week 2): 62.00 (59.39-64.62) ml/min/1.73 m^2
eGFR Mean (95% CI) ([1]; SBP <130, Average UA <6, Baseline): 64.76 (63.32-66.20) ml/min/1.73 m^2
eGFR Mean (95% CI) ([1]; SBP <130, Average UA <6, Month 3): 64.67 (63.21-66.12) ml/min/1.73 m^2
eGFR Mean (95% CI) ([1]; SBP <130, Average UA <6, Month 6): 64.87 (63.38-66.36) ml/min/1.73 m^2
eGFR Mean (95% CI) ([1]; SBP <130, Average UA <6, Month 12): 66.06 (64.55-67.57) ml/min/1.73 m^2
eGFR Mean (95% CI) ([1]; SBP <130, Average UA <6, Month 18): 66.18 (64.56-67.79) ml/min/1.73 m^2
eGFR Mean (95% CI) ([1]; SBP <130, Average UA <6, Month 24): 66.12 (64.42-67.83) ml/min/1.73 m^2
eGFR Mean (95% CI) ([1]; SBP <130, Average UA <6, Month 30): 66.59 (64.74-68.44) ml/min/1.73 m^2
eGFR Mean (95% CI) ([1]; SBP <130, Average UA <6, Month 36): 67.47 (65.55-69.39) ml/min/1.73 m^2
eGFR Mean (95% CI) ([1]; SBP <130, Average UA <6, Month 42): 66.93 (64.77-69.08) ml/min/1.73 m^2
eGFR Mean (95% CI) ([1]; SBP <130, Average UA <6, Month 48): 68.21 (65.88-70.54) ml/min/1.73 m^2
eGFR Mean (95% CI) ([1]; SBP <130, Average UA <6, Month 54): 68.62 (66.03-71.22) ml/min/1.73 m^2
eGFR Mean (95% CI) ([1]; SBP <130, Average UA <6, Month 60): 69.36 (66.42-72.30) ml/min/1.73 m^2
eGFR Mean (95% CI) ([1]; SBP <130, Average UA <6, Week 2): 65.16 (63.69-66.63) ml/min/1.73 m^2
eGFR Mean (95% CI) ([1]; SBP <130, Average UA ≥6, Baseline): 65.83 (63.23-68.44) ml/min/1.73 m^2
eGFR Mean (95% CI) ([1]; SBP <130, Average UA ≥6, Month 3): 65.54 (62.88-68.20) ml/min/1.73 m^2
eGFR Mean (95% CI) ([1]; SBP <130, Average UA ≥6, Month 6): 65.87 (63.30-68.43) ml/min/1.73 m^2
eGFR Mean (95% CI) ([1]; SBP <130, Average UA ≥6, Month 12): 65.19 (62.39-67.99) ml/min/1.73 m^2
eGFR Mean (95% CI) ([1]; SBP <130, Average UA ≥6, Month 18): 63.60 (60.49-66.71) ml/min/1.73 m^2
eGFR Mean (95% CI) ([1]; SBP <130, Average UA ≥6, Month 24): 62.90 (59.50-66.30) ml/min/1.73 m^2
eGFR Mean (95% CI) ([1]; SBP <130, Average UA ≥6, Month 30): 62.62 (58.76-66.48) ml/min/1.73 m^2
eGFR Mean (95% CI) ([1]; SBP <130, Average UA ≥6, Month 36): 65.24 (60.84-69.64) ml/min/1.73 m^2
eGFR Mean (95% CI) ([1]; SBP <130, Average UA ≥6, Month 42): 65.47 (60.56-70.39) ml/min/1.73 m^2
eGFR Mean (95% CI) ([1]; SBP <130, Average UA ≥6, Month 48): 64.82 (59.40-70.23) ml/min/1.73 m^2
eGFR Mean (95% CI) ([1]; SBP <130, Average UA ≥6, Month 54): 65.92 (59.74-72.11) ml/min/1.73 m^2
eGFR Mean (95% CI) ([1]; SBP <130, Average UA ≥6, Month 60): 64.71 (57.42-72.01) ml/min/1.73 m^2
eGFR Mean (95% CI) ([1]; SBP <130, Average UA ≥6, Week 2): 65.59 (62.82-68.36) ml/min/1.73 m^2
proportion of patients with maintenance of serum uric acid concentration at less than 6.0 mg per deciliter ([2]; after 2nd week, at most times, febuxostat group vs allopurinol group): a higher proportion of the patients in the febuxostat group
proportion of patients with serum uric acid concentration of less than 6.0 mg per deciliter ([2]; at the 2nd week, febuxostat group vs allopurinol group): higher in the febuxostat group than in the allopurinol group
proportion of patients with serum uric acid concentration of less than 5.0 mg per deciliter ([2]; entire trial, febuxostat group vs allopurinol group): a larger proportion of the patients in the febuxostat group than in the allopurinol group
rate of gout flare ([2]; overall, during the trial): 0.68 per patient-year
acute renal failure reported more often [3]: 5.7 times
